target: T1, rat B1R (bradykinin receptor 1) (Rattus norvegicus, UniProt P97583); test: FLIPR Ca2+ assay (Fluo-4) on CHO K1 cells stably transfected with the B1R gene of the rat (rB1R cells): % inhibition at 10 μM / IC50, agonist Des-Arg9-bradykinin; format: cell-based; details: CHO-K1, rat B1R
T1 construct: expressed in transfected cells; host or cells: CHO K1 cells
T1 sequence (P97583 1-337): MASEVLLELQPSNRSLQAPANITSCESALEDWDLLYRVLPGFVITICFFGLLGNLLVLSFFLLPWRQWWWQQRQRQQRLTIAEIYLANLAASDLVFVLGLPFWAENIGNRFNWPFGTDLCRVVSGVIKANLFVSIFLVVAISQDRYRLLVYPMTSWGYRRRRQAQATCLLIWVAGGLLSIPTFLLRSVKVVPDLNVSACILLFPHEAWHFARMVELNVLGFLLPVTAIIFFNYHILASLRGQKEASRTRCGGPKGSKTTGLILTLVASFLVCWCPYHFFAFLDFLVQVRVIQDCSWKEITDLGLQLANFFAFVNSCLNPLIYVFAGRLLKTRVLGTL
Summary of the method: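 Stably transfected CHO K1 cells loaded with Fluo-4 and read on FLIPR (λex 488, λem 540 nm; peak fluorescence). Test substance (10 μM) added first, then after 10–20 min the agonist at EC80; % inhibition versus maximum achievable inhibition. IC50 from several concentrations, n=2–3, N≥2.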

First: O=C(c1ccc2c(c1)C(NS(=O)(=O)Cc1cccc(Cl)c1)CC2)N1CCC2(CC1)CCN(c1ccncc1)CC2 (stereo not drawn) [IND_CC-352, 1-(3-Chlorophenyl)-N-[6-(9-pyridin-4-yl-3,9-diazaspiro[5.5]undecane-3-carbonyl)-2,3-dihydro-1H-inden-1-yl]-methanesulfonic acid amide]
Second: O=C(c1ccc2c(c1)C(NS(=O)(=O)Cc1cccc(Cl)c1)CC2)N1CCC2(CC1)CCN(c1ccncc1)C2 (stereo not drawn) [IND_CC-353, 1-(3-Chlorophenyl)-N-[6-(2-pyridin-4-yl-2,8-diazaspiro[4.5]decane-8-carbonyl)-2,3-dihydro-1H-inden-1-yl]-methanesulfonic acid amide]
The inhibition at 10 µM of the first is higher: 98% for the first, 97% for the second.

Compared with `Cc1cc(F)cc(C)c1S(=O)(=O)N(C)C1CCc2ccc(C(=O)N3CCC4(CC3)CCN(c3ccncc3)CC4)cc21` (stereo not drawn) [IND_CC-354, 4-Fluoro-N,2,6-trimethyl-N-[6-(9-pyridin-4-yl-3,9-diazaspiro[5.5]undecane-3-carbonyl)-2,3-dihydro-1H-inden-1-yl]-benzenesulfonic acid amide], `Cc1cc(F)cc(C)c1S(=O)(=O)NC1CCc2ccc(C(=O)N3CCC4(CC3)CCN(c3ccncc3)CC4)cc21` (stereo not drawn) [IND_CC-355, 4-Fluoro-2,6-dimethyl-N-[6-(9-pyridin-4-yl-3,9-diazaspiro[5.5]undecane-3-carbonyl)-2,3-dihydro-1H-inden-1-yl]-benzenesulfonic acid amide] is lower in inhibition at 10 µM: 84% for the first, 65% for the second.

Going from `Cc1cc(F)cc(C)c1S(=O)(=O)NC1CCc2ccc(C(=O)N3CCC4(CC3)CCN(c3ccncc3)C4)cc21` (stereo not drawn) [IND_CC-356, 4-Fluoro-2,6-dimethyl-N-[6-(2-pyridin-4-yl-2,8-diazaspiro[4.5]decane-8-carbonyl)-2,3-dihydro-1H-inden-1-yl]-benzenesulfonic acid amide] to `Cc1cc(F)cc(C)c1S(=O)(=O)NC1CCc2ccc(C(=O)N3CCC4(CCN(c5ccncc5)CC4)C3)cc21` (stereo not drawn) [IND_CC-361, 4-Fluoro-2,6-dimethyl-N-[6-(8-pyridin-4-yl-2,8-diazaspiro[4.5]decane-2-carbonyl)-2,3-dihydro-1H-inden-1-yl]-benzenesulfonic acid amide], the inhibition at 10 µM rises from 69% to 99%.

Going from `O=C(c1ccc2c(c1)C(NS(=O)(=O)c1cc(Cl)ccc1Cl)CC2)N1CCC2(CCN(c3ccncc3)CC2)C1` (stereo not drawn) [IND_CC-357, 2,5-Dichloro-N-[6-(8-pyridin-4-yl-2,8-diazaspiro[4.5]decane-2-carbonyl)-2,3-dihydro-1H-inden-1-yl]-benzenesulfonic acid amide] to `O=C(c1ccc2c(c1)C(NS(=O)(=O)c1cc(Cl)c(Cl)cc1Cl)CC2)N1CCC2(CC1)CCN(c1ccncc1)C2` (stereo not drawn) [IND_CC-363, 2,4,5-Trichloro-N-[6-(2-pyridin-4-yl-2,8-diazaspiro[4.5]decane-8-carbonyl)-2,3-dihydro-1H-inden-1-yl]-benzenesulfonic acid amide], the inhibition at 10 µM falls from 95% to 74%.

First: O=C(c1ccc2c(c1)C(NS(=O)(=O)Cc1ccccc1F)CC2)N1CCC2(CCN(c3ccncc3)CC2)C1 (stereo not drawn) [IND_CC-359, 1-(2-Fluorophenyl)-N-[6-(8-pyridin-4-yl-2,8-diazaspiro[4.5]decane-2-carbonyl)-2,3-dihydro-1H-inden-1-yl]-methanesulfonic acid amide]
Second: O=C(c1ccc2c(c1)C(NS(=O)(=O)Cc1cccc(Cl)c1)CC2)N1CCC2(CCN(c3ccncc3)CC2)C1 (stereo not drawn) [IND_CC-360, 1-(3-Chlorophenyl)-N-[6-(8-pyridin-4-yl-2,8-diazaspiro[4.5]decane-2-carbonyl)-2,3-dihydro-1H-inden-1-yl]-methanesulfonic acid amide]
The inhibition at 10 µM of the first is higher: 104% for the first, 69% for the second.

Compared with `CN(C1CCc2ccc(C(=O)N3CCC4(CC3)CCN(c3ccncc3)CC4)cc21)S(=O)(=O)c1cc(Cl)c(Cl)cc1Cl` (stereo not drawn) [IND_CC-362, 2,4,5-Trichloro-N-methyl-N-[6-(9-pyridin-4-yl-3,9-diazaspiro[5.5]undecane-3-carbonyl)-2,3-dihydro-1H-inden-1-yl]-benzenesulfonic acid amide], `CN(C(=O)C1CC1)C1CCc2ccc(C(=O)N3CCC4(CC3)CCN(c3ccncc3)CC4)cc21` (stereo not drawn) [IND_CC-369, N-Methyl-N-[6-(9-pyridin-4-yl-3,9-diazaspiro[5.5]undecane-3-carbonyl)-2,3-dihydro-1H-inden-1-yl]-cyclopropanecarboxylic acid amide] is lower in inhibition at 10 µM: 81% for the first, 74% for the second.

First: O=C(NC1CCc2ccc(C(=O)N3CCC4(CC3)CCN(c3ccncc3)CC4)cc21)C1CCCCC1 (stereo not drawn) [IND_CC-364, N-[6-(9-Pyridin-4-yl-3,9-diazaspiro[5.5]undecane-3-carbonyl)-2,3-dihydro-1H-inden-1-yl]-cyclohexanecarboxylic acid amide]
Second: O=C(NC1CCc2ccc(C(=O)N3CCC4(CC3)CCN(c3ccncc3)C4)cc21)C1CCCCC1 (stereo not drawn) [IND_CC-366, N-[6-(2-Pyridin-4-yl-2,8-diazaspiro[4.5]decane-8-carbonyl)-2,3-dihydro-1H-inden-1-yl]-cyclohexanecarboxylic acid amide]
The inhibition at 10 µM of the first is lower: 103% for the first, 104% for the second.

Going from `CN(C(=O)C1CCCCC1)C1CCc2ccc(C(=O)N3CCC4(CC3)CCN(c3ccncc3)CC4)cc21` (stereo not drawn) [IND_CC-365, N-Methyl-N-[6-(9-pyridin-4-yl-3,9-diazaspiro[5.5]undecane-3-carbonyl)-2,3-dihydro-1H-inden-1-yl]-cyclohexanecarboxylic acid amide] to `O=C(NC1CCc2ccc(C(=O)N3CCC4(CCN(c5ccncc5)CC4)C3)cc21)C1CCCCC1` (stereo not drawn) [IND_CC-367, N-[6-(8-Pyridin-4-yl-2,8-diazaspiro[4.5]decane-2-carbonyl)-2,3-dihydro-1H-inden-1-yl]-cyclohexanecarboxylic acid amide], the inhibition at 10 µM falls from 105% to 104%.

First: O=C(NC1CCc2ccc(C(=O)N3CCC4(CC3)CCN(c3ccncc3)CC4)cc21)C1CC1 (stereo not drawn) [IND_CC-368, N-[6-(9-Pyridin-4-yl-3,9-diazaspiro[5.5]undecane-3-carbonyl)-2,3-dihydro-1H-inden-1-yl]-cyclopropanecarboxylic acid amide]
Second: O=C(NC1CCc2ccc(C(=O)N3CCC4(CCN(c5ccncc5)CC4)C3)cc21)C1CC1 (stereo not drawn) [IND_CC-370, N-[6-(8-Pyridin-4-yl-2,8-diazaspiro[4.5]decane-2-carbonyl)-2,3-dihydro-1H-inden-1-yl]-cyclopropanecarboxylic acid amide]
The inhibition at 10 µM of the first is lower: 87% for the first, 100% for the second.

Compared with `CC(C)(C)CC(=O)NC1CCc2ccc(C(=O)N3CCC4(CC3)CCN(c3ccncc3)CC4)cc21` (stereo not drawn) [IND_CC-371, 3,3-Dimethyl-N-[6-(9-pyridin-4-yl-3,9-diazaspiro[5.5]undecane-3-carbonyl)-2,3-dihydro-1H-inden-1-yl]-butyramide], `CC(C)(C)CC(=O)NC1CCc2ccc(C(=O)N3CCC4(CC3)CCN(c3ccncc3)C4)cc21` (stereo not drawn) [IND_CC-373, 3,3-Dimethyl-N-[6-(2-pyridin-4-yl-2,8-diazaspiro[4.5]decane-8-carbonyl)-2,3-dihydro-1H-inden-1-yl]-butyramide] is lower in inhibition at 10 µM: 104% for the first, 102% for the second.

Going from `CN(C(=O)CC(C)(C)C)C1CCc2ccc(C(=O)N3CCC4(CC3)CCN(c3ccncc3)CC4)cc21` (stereo not drawn) [IND_CC-372, N,3,3-Trimethyl-N-[6-(9-pyridin-4-yl-3,9-diazaspiro[5.5]undecane-3-carbonyl)-2,3-dihydro-1H-inden-1-yl]-butyramide] to `CC(C)(C)CC(=O)NC1CCc2ccc(C(=O)N3CCC4(CCN(c5ccncc5)CC4)C3)cc21` (stereo not drawn) [IND_CC-374, 3,3-Dimethyl-N-[6-(8-pyridin-4-yl-2,8-diazaspiro[4.5]decane-2-carbonyl)-2,3-dihydro-1H-inden-1-yl]-butyramide], the inhibition at 10 µM falls from 105% to 103%.

First: CC(=O)NC1CCc2ccc(C(=O)N3CCC4(CCN(c5ccncc5)CC4)C3)cc21 (stereo not drawn) [IND_CC-375, N-[6-(8-Pyridin-4-yl-2,8-diazaspiro[4.5]decane-2-carbonyl)-2,3-dihydro-1H-inden-1-yl]-acetamide]
Second: O=C(NC1CCc2ccc(C(=O)N3CCC4(CCN(c5ccncc5)CC4)C3)cc21)c1c(F)cccc1C(F)(F)F (stereo not drawn) [IND_CC-378, 2-Fluoro-N-[6-(8-pyridin-4-yl-2,8-diazaspiro[4.5]decane-2-carbonyl)-2,3-dihydro-1H-inden-1-yl]-6-(trifluoromethyl)-benzamide]
The inhibition at 10 µM of the first is lower: 59% for the first, 104% for the second.

Compared with `O=C(NC1CCc2ccc(C(=O)N3CCC4(CC3)CCN(c3ccncc3)CC4)cc21)c1c(F)cccc1C(F)(F)F` (stereo not drawn) [IND_CC-376, 2-Fluoro-N-[6-(9-pyridin-4-yl-3,9-diazaspiro[5.5]undecane-3-carbonyl)-2,3-dihydro-1H-inden-1-yl]-6-(trifluoromethyl)-benzamide], `O=C(NC1CCc2ccc(C(=O)N3CCC4(CC3)CCN(c3ccncc3)C4)cc21)c1c(F)cccc1C(F)(F)F` (stereo not drawn) [IND_CC-377, 2-Fluoro-N-[6-(2-pyridin-4-yl-2,8-diazaspiro[4.5]decane-8-carbonyl)-2,3-dihydro-1H-inden-1-yl]-6-(trifluoromethyl)-benzamide] is higher in inhibition at 10 µM: 102% for the first, 104% for the second.

`O=C(NC1CCc2ccc(C(=O)N3CCC4(CC3)CCN(c3ccncc3)CC4)cc21)c1ccc(F)cc1C(F)(F)F` (stereo not drawn) [IND_CC-379, 4-Fluoro-N-[6-(9-pyridin-4-yl-3,9-diazaspiro[5.5]undecane-3-carbonyl)-2,3-dihydro-1H-inden-1-yl]-2-(trifluoromethyl)-benzamide] was tested, and the inhibition at 10 µM was 103%.

Source: patent US8455475B2 (Gruenenthal GmbH, priority 2009, dated 2013)
